In patent US20100184596A1, “METHOD FOR THE CONTROL OF WEEDS IN TURF” (SYNGENTA CROP PROTECTION, INC., priority 2007, published 2010):

System: turfgrass
Assay: Example B4, conclusion in words
Format: in vivo
Conditions: applied with Formula I
Protocol: The phytotoxicity to turfgrass of the compound of formula I in combination with various safeners was tested. The combinations were applied by post emergence spray application. Percentage phytotoxicity assessments were taken at various timepoints. The safeners tested in these trials were cloquintocet-mexyl, cyprosulfamide, a compound of formula 2.3, and isoxadifen-ethyl.

SMILES | safener effectiveness, in words
CNC(=O)Nc1ccc(S(=O)(=O)NC(=O)c2ccccc2OC)cc1 [Formula 2.3] | particular effective safeners
COc1ccccc1C(=O)NS(=O)(=O)c1ccc(C(=O)NC2CC2)cc1 [cyprosulfamide] | particular effective safeners
